# Results: publication PMC11602988 (The Journal of Biological Chemistry, 2024)
# Numbering of substitutions follows the chain as printed. “And” between values parts separate entries of the source, which are not always exact repeats. Equal entries are not always repeated. Where two headings read alike, the source gives them in different places.
# What was measured:
# OCT1 Phe244Ala variant = biological target: T1, OCT1 Phe244Ala variant (Homo sapiens, UniProt O15245, F244A); test: Uptake screening (transport ratio over empty vector), HEK293 cells overexpressing OCT1 Phe244Ala variant; format: cell-based; design: expressed in transfected cells;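 also: stably transfected HEK293 cells, intracellular substrate quantified by HPLC-tandem mass spectrometry in cell lysates, uptake in HBSS+ buffer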
# T1 sequence (O15245 1-554 F244A): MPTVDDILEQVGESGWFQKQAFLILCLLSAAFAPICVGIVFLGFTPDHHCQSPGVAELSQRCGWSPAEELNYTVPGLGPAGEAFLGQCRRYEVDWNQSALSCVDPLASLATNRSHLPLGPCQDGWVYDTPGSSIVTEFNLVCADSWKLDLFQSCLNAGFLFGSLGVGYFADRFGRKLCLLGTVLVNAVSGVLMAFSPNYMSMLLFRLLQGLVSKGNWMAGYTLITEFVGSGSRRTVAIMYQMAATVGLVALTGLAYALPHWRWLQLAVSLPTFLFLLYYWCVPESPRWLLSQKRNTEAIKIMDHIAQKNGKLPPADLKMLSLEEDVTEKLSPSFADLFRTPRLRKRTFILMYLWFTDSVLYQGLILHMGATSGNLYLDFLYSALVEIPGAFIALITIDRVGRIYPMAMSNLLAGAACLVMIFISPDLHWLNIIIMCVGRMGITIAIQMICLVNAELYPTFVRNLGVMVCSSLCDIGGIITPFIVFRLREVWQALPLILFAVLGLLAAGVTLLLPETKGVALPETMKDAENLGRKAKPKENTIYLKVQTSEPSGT
# Protocol: All experiments were carried out using transporter-overexpressing HEK293 cells. […] Cells were cultivated in Dulbecco’s Modified Eagle’s medium supplemented with 10% fetal calf serum, 100 U/ml penicillin, and 100 μg/ml streptomycin. Cells were passaged twice a week and kept in culture for no longer than 30 passages.
# For uptake studies, 300,000 HEK293 cells were plated in each well of 24-well plates precoated with poly-D-lysine 48 prior to the experiment. On the day of the experiment, cells were washed once with prewarmed to 37 °C HBSS+ (Hank’s balanced salt solution supplemented with 10 mM Hepes, both Sigma-Aldrich). […] Uptake was stopped by adding ice-cold HBSS+ and cells were washed twice with ice-cold buffer before cell lysis was done using 80% acetonitrile containing an appropriate internal standard for eventual mass spectrometry. Relative quantification was done by comparison of transporter-overexpressing cells to empty vector–transfected controls. For uptake kinetic experiments, cells were incubated with increasing concentrations of substrate dissolved in HBSS+. Absolute quantification was done later by comparison to a standard curve in lysis buffer with known concentration.
# Intracellular drug concentrations were detected and quantified by HPLC coupled to mass spectrometry. […] Substance-specific conditions were used to adjust the retention times of the analytes.
# Transport ratios were determined as relative fold-increase of the uptake in transporter-overexpressing cells over empty vector–transfected control cells. For transport kinetic experiments, absolute substrate quantification was done by signal comparison to a standard curve with known concentrations. Net uptake was then determined by subtracting the uptake into empty vector–transfected cells from transporter-overexpressing cells. […] Vmax defines the maximum transport velocity, Km refers to the substrate concentration required to reach half vmax. The intrinsic clearance Clint is the ratio of vmax over Km.
# OCT1 WT = biological target: T2, OCT1 WT (Homo sapiens, UniProt O15245); test: Uptake screening (transport ratio over empty vector), HEK293 cells overexpressing OCT1 WT; format: cell-based; design: expressed in transfected cells;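 also: intracellular substrate levels quantified by HPLC–tandem mass spectrometry after uptake in HBSS+ buffer at 37 °C, stable Flp-In HEK293 lines, fold change versus empty vector–transfected cells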
# T2 sequence (O15245 1-554): T1 sequence (O15245 1-554 F244A) with A244F
# [1] = Phe244Ala uptake relative to WT
# [2] = uptake ratio over empty vector, HEK293 cells overexpressing OCT1 Phe244Ala
# [3] = uptake ratio over empty vector, HEK293 cells overexpressing OCT1 WT
# [4] = uptake ratio of OCT1 Phe244Ala-overexpressing HEK293 cells over empty vector
# [5] = uptake ratio of OCT1 WT-overexpressing HEK293 cells over empty vector
# [6] = Phe244Ala uptake relative to OCT1 WT
SMILES,relative_Phe244Ala_uptake_in% (OCT1 Phe244Ala variant; [1]),Mean_transport_ratio_Phe244Ala (OCT1 Phe244Ala variant; [2]),Mean_transport_ratio_WT (OCT1 WT; [3]),Mean_transport_ratio_Phe244Ala (OCT1 Phe244Ala variant; [4]),Mean_transport_ratio_WT (OCT1 WT; [5]),relative_Phe244Ala_uptake_in% (OCT1 Phe244Ala variant; [6]),further results
CCN1CCCC1CNC(=O)c1cc(S(=O)(=O)CC)c(N)cc1OC (centres unmarked) [Amisulpride],97.893%,8.279,8.435,,,,
CC[N+](CC)(CC)Cc1ccccc1 [Benzyltriethylammonium],82.289%,46.399,56.17,,,,
COc1ccc2cc3[n+](cc2c1OC)CCc1cc2c(cc1-3)OCO2 [Berberine],63.219%,7.924,11.952,,,,
NCC(O)c1ccccc1 (centres unmarked) [Bisnorephedrine],116.872%,1.345,1.295,,,,
CCCCNC(=N)NC(=N)N [Buformin],42.469%,14.865,33.648,,,,
CCCC[N+]1(C)[C@@H]2C[C@@H](OC(=O)[C@H](CO)c3ccccc3)C[C@H]1[C@@H]1O[C@@H]12 (some centres unmarked) [Butylscopolamine],125.561%,30.852,24.775,,,,
NC(N)=NC(N)=Nc1ccc(Cl)cc1 [CPB],76.322%,13.901,17.903,,,,
CN=C(NC#N)NCCSCc1nc[nH]c1C [Cimetidin],103.374%,2.588,2.536,,,,
C[N+]12CCC(CC1)C(OC(=O)C(O)(c1ccccc1)c1ccccc1)C2 (centres unmarked) [Clidinium],112.238%,34.518,30.863,,,,
CC(C)(C)NCC(O)c1ccc(O)c(O)c1 (centres unmarked) [Colterol],33.880%,2.364,5.025,,,,
c1c2c(cc3c1OCO3)-c1cc3ccc4c(c3c[n+]1CC2)OCO4 [Coptisine],90.627%,10.972,12.003,,,,
CC1(C)N=C(N)N=C(N)N1c1ccc(Cl)cc1 [Cycloguanil],95.814%,16.588,17.269,,,,
N=C(N)N1CCc2ccccc2C1 [Debrisoquin],108.342%,20.768,19.246,,,,
COc1cc2c(cc1OC)-c1c(C)c3ccc(OC)c(OC)c3c[n+]1CC2 [Dehydrocorydaline],100.287%,9.409,9.385,,,,
CC[N+](CC)(CC(=O)Nc1c(C)cccc1C)Cc1ccccc1 [Denatonium],121.267%,17.085,14.264,,,,
C[N+]1(C)CCN(c2ccccc2)CC1 [Dimethylphenylpiperazinium],70.889%,24.939,34.77,,,,
NC(=Nc1ccccc1)Nc1ccccc1 [Diphenylguanidine],,,,,,,Mean_transport_ratio_Phe244Ala (OCT1 Phe244Ala variant): 1.952; relative_Phe244Ala_uptake_in% (OCT1 Phe244Ala variant): 91.817%; Mean_transport_ratio_WT (OCT1 WT): 2.037
CC(C)N(CCC(C(N)=O)(c1ccccc1)c1ccccn1)C(C)C (centres unmarked) [Disopyramide],27.882%,1.093,1.334,,,,
CC[N+](C)(C)c1cccc(O)c1 [Edrophonium],101.017%,26.201,25.947,,,,
CCC1(C2=NCCN2)Cc2ccccc2O1 (centres unmarked) [Efaroxan],45.757%,1.371,1.81,,,,
Nc1nc(=O)n([C@@H]2CS[C@H](CO)O2)cc1F [Emtricitabine],51.794%,2.01,2.95,,,,
COc1cc2c(cc1OC)-c1cc3ccc4c(c3c[n+]1CC2)OCO4 [Epiberberine],84.587%,18.92,22.185,,,,

SMILES,relative_Phe244Ala_uptake_in% (OCT1 Phe244Ala variant; [1]),Mean_transport_ratio_Phe244Ala (OCT1 Phe244Ala variant; [2]),Mean_transport_ratio_WT (OCT1 WT; [3]),Mean_transport_ratio_Phe244Ala (OCT1 Phe244Ala variant; [4]),Mean_transport_ratio_WT (OCT1 WT; [5]),relative_Phe244Ala_uptake_in% (OCT1 Phe244Ala variant; [6]),further results
CCNCC(O)c1cccc(O)c1 (centres unmarked) [Etilefrine],39.917%,3.319,6.81,,,,
O=S(=O)(c1cccc2cnccc12)N1CCCNCC1 [Fasudil],,,,1.171,1,,
C[N+]1(CCC(C(N)=O)(c2ccccc2)c2ccccc2)CCCCC1 [Fenpiverinium],,,,50.359,38.408,131.946%,
CCOC(=O)c1ccc(OC(=O)CCCCCNC(=N)N)cc1 [Gabexate],,,,2.051,1.935,112.397%,
N=C(N)NC(=O)Cc1c(Cl)cccc1Cl [Guanfacine],,,,2.966,3.273,86.485%,
COc1ccc2c3c([nH]c2c1)C(C)=NCC3 [Harmaline],,,,1.245,1.46,53.184%,
CC(N)CCCC(C)(C)O (centres unmarked) [Heptaminol],,,,2.658,8.957,20.840%,
Oc1ccc(CC2NCCc3cc(O)c(O)cc32)cc1 (centres unmarked) [Higenamine],,,,13.029,27.934,44.661%,
NCc1ccc(O)cc1 [Hydroxybenzylamin],,,,1.294,2.288,22.795%,
C[C@H]1N=C(N(C)C)N=C(N)N1 [Imeglimin],,,,9.177,32.655,25.831%,
CCC(NC(C)C)C(O)c1ccc(O)c(O)c1 (centres unmarked) [Isoetharine],,,,16.355,15.766,103.988%,
CC(C)NCC(O)c1ccc(O)c(O)c1 (centres unmarked) [Isoproterenol],,,,2.519,6.241,28.983%,
"C[n+]1ccc(-c2ccccc2)cc1 [MPP^+, 1-Methyl-4-phenylpyridinium]",,,,29.377,45.919,63.172%,
CNC1(C)C2CCC(C2)C1(C)C (centres unmarked) [Mecamylamine],,,,0.581,1.579,-72.241%,
C[N+]1(C)CCCC(OC(=O)C(O)(c2ccccc2)c2ccccc2)C1 (centres unmarked) [Mepenzolate],,,,36.4 and 41.936,28.031 and 34.795,130.959% and 121.132%,
CCC1(c2cccc(O)c2)CCCCN(C)C1 (centres unmarked) [Meptazinol],,,,,,,Mean_transport_ratio_Phe244Ala (OCT1 Phe244Ala variant): 1.571; relative_Phe244Ala_uptake_in% (OCT1 Phe244Ala variant): 119.786%; Mean_transport_ratio_WT (OCT1 WT): 1.477
NC(N)=NCc1cccc(I)c1 [Metaiodobenzylguanidine],,,,11.193,11.544,96.674%,
CNCC(O)c1ccc(O)c(OC)c1 (centres unmarked) [Metanephrine],,,,3.351,7.123,38.392%,
C[N@+]1(CC2CC2)CC[C@]23c4c5ccc(O)c4O[C@H]2C(=O)CC[C@@]3(O)[C@H]1C5 [Methylnaltrexone],,,,66.016,47.714,139.178%,
Cc1ncccc1C(N)=O [Methylnicotinamide],,,,0.82,3.894,-6.232%,
CNCc1ccc(CSCCNC(=C[N+](=O)[O-])NC)o1 [N-Desmethyl ranitidine],88.566%,31.7,35.663,,,,
